Here are results for 4 molecules from publication PMC9022420 (Scientific Reports, 2022).

Structures are written as SMILES.

The nature of series [1]: Singlet oxygen quantum yield determination. The class given is physicochemical. The note with it: in MeCN; for φΔ singlet oxygen quantum yield: calculated using Ru(bpy)3^2+ as the reference.
Series [2] relates to 17Cl-1 cells. Put plainly: 24 h MTS cytotoxicity assay, 17Cl-1. The class given is cell-based, murine. Particulars: Mus musculus, 24 h incubation, dark. As to the method: (§1) The MTS tetrazolium compound is reduced by cells into a coloured formazan product which is soluble in cell culture media. It can be detected colorimetrically between 450 and 540 nm with the measured absorbance directly proportional to the amount of metabolically active cells in culture. Cells were seeded into clear 96-well plates containing 10,000 cells/well in 100 µL complete growth medium and cultured for 24 h at 37 °C and 5% CO2. […] After further 24 h incubation at 37 °C and 5% CO2, 20 µL of CelTiter 96® AQueous One Solution (Promega) was added into each well and incubated at 37 °C, 5% CO2 for 1–4 h, according to the manufacturer’s instruction. The absorbance of each well was measured at 490 nm using a plate reader (Spark, Tecan). Control measurements included negative control of cells with DMEM, cells with DMEM containing 0.1% DMSO, cell-free culture media (blank) and cell-free sample dilutions in culture media to evaluate potential sample interferences with MTS assay. All experiments were conducted in biological triplicates. The percentage cell viability was calculated according to Eq. (1):1 Cell viability(%)=100×Absorbanceoftreatedcells-Absorbanceofblank/Absorbanceofcontrol-Absorbanceofblank

Series [3] relates to murine hepatitis virus A59 strain (MHV-A59). Nature of the series: Photodynamic inactivation of MHV-A59 (TCID50 assay in 17Cl-1 cells). It counts as cell-based. The method, then: The efficacy of the flavins were enumerated utilizing modified methods from ISO 18,184 and Leibowitz et al.[56] […] 100 µM working stock solutions were then created by diluting each DMSO solution into PBS. To control for the effect of DMSO on MHV-A59, DMSO was diluted into PBS at the same concentration. A white light apparatus was set up to cover a 4 × 5 (row x column) area of a 96-well plate with the same level of light intensity (1 × 10^5 lx). The stock solutions were then diluted in replicates of four to a total of 180 µl in PBS at 1, 5, and 10 µM concentrations for each sample. Virus stocks of MHV-A59 were thawed on ice prior to use. 20 µl of MHV-A59 stock (1.4 × 10^9 PFU/ml) was then mixed into each well, and the 4 × 5 well matrix was treated with the light or incubated in the dark at room temperature for a specified time (5, 10, or 15 min).
After treatment, the samples were mixed into 320 µl of Gibco Difco™ Beef Extract (1.5% w/v beef extract in ddH2O; Life Technologies) and rolled for 15 min to chelate any free ions in the solution. The samples then were serially diluted (10^0–10^–7) in infectivity media (Dulbecco’s modified Eagle’s medium low glucose 1 g/L (DMEM, Life Technologies) supplemented with 2.5% fetal bovine serum (Merck), 3% tryptose phosphate broth (Merck), 1 × non-essential amino acids (Gibco), 1 × antibiotic–antimycotic (Thermo Fisher Scientific) and 1 × L-Glutamine (Gibco]) and added in triplicate to 17Cl-1 cell plates. For each sample or control there were 4 replicate treatments (in light or dark); each treatment replicate was plated in triplicate. Infected 17Cl-1 plates were incubated at 37 °C in a 5% CO2 atmosphere for 24 h. Plates were scored for cytopathic effect (CPE) by microscopy and viral titres were determined by the Reed and Muench 50% tissue culture infectious dose (TCID50) end point method. Outliers were removed from the four replicates using an outlier test. The full protocol was repeated in triplicate on different days to account for any variability in the assay.

The nature of series [4]: UV-Vis absorption and emission spectra of flavins in DMSO. It counts as physicochemical. Particulars: measured in DMSO.
The test system of series [5] is WI-38 cells. Put plainly: Light-induced toxicity towards WI-38 cells (MTS). The class given is cell-based, human. Particulars: 10 μM flavin, 15 min irradiation 1 × 10^5 lx. The method, then:
An adapted method reported by Maisch et al. was used to conduct phototoxicity studies on human lung fibroblasts, WI-38[28]. Cells were seeded into 96-well plates containing 10,000 cells/well in 100 µL complete growth medium and cultured for 24 h at 37 °C and 5% CO2. […] The resulting mixtures were then incubated in the dark for 5 min and then either illuminated with 1 × 10^5 lx for 5, 10 or 15 min, or incubated further in the dark for 15 min (dark control). After irradiation, the flavin solutions were removed and 100 μL of DMEM with 10% FBS and without phenol red was added to each well and incubated over night at 37 °C and 5% CO2. Subsequently, 20 µL of MTS reagent was added into each well and incubated at 37 °C and 5% CO2 for 1–4 h and the absorbance of each well was measured at 490 nm using a plate reader. Control measurements included negative control untreated cells with light and in the dark containing 0.1% DMSO and cells treated with flavins for 15 min in the dark. All experiments were conducted in biological triplicates. The percentage cell viability was calculated according to Eq. (1).

Series [6] deals with WI-38 cells. Nature of the series: 24 h MTS cytotoxicity assay, WI-38. It counts as cell-based. Particulars: Homo sapiens, 24 h incubation, dark. The method, then: as §1
Series [7] has as its system ssRNA (EGFP-encoding mRNA, ~ 1 k nt). Put plainly: ssRNA photocleavage, agarose gel electrophoresis. It counts as biochemical. Particulars: 10 µM flavin, 15 min white LED, PBS 0.1% DMSO. The method, then:
A 20 µL aliquot was taken after 15 min of white LED irradiation (1 × 10^5 lx). Prior to loading, 2 µL of 6X Orange-G loading dye in glycerol were added to the aliquot and mixed vigorously. The gel was electrophoresed at 80 V for 35 min with 1% agarose gels in 1X Tris–acetate-EDTA (TAE) buffer. Gels were then imaged in a Syngene G:BOX Gel Documentation System and band % quantification was performed using ImageJ Gel Analyzer.

Series [8] is described as follows: Flavin photostability in PBS under white LED irradiation. Particulars: 100 µM in PBS, white LED 1 × 10^5 lx, 30 min irradiation. It counts as physicochemical. An excerpt: After successful synthesis and initial characterisation, we monitored the photostability of the compounds in PBS (1x, pH 7.4) which was used for PDI assays as distilled or ultrapure water destabilises bacterial cells and coronaviruses through osmotic pressures[37],[38], thereby augmenting inactivation results. […] This yields lumichrome as the major degradation product which can only act as a PS under UV-irradiation[40]. […] However, it appears that guanidino substitution in our case improves the photostability.
Figure S4: (A) Flavin photostability (100 µM) in PBS (0.1% DMSO) irradiated with 1x105 lx (35 mW/cm2) where A
= Abs at 450 nm and A0 = Abs at 450 nm at 0 min.
photostability. Experiments were performed using a quartz cuvette and measured using an Agilent Cary 300
(1 picture or pasted object on this page, not shown here)

The mark [9] stands for this setting: 1 µM flavin, 10 min irradiation (21.0 J/cm^2).
[10] abbreviates: 5 µM flavin, 10 min irradiation.
The mark [11] stands for this setting: 10 µM flavin, 10 min irradiation.

Usually IC50 stands for the concentration at which inhibition is half-maximal. Lower therefore signals greater potency. As to `CCCCCCCCn1c(=O)nc2n(CCN)c3cc(Br)c(Br)cc3nc-2c1=O` [Flavin F3], in series [1], the “ФΔ singlet oxygen quantum yield” value worked out at 85% and the “φΔ singlet oxygen quantum yield” value is listed as 0.85 ± 0.09. In series [2], this molecule yielded an IC50 of 3.66 µM. In series [3] (setting [9]), the “MHV-A59 log10 reduction in viral titre” value is on record as 2.1 log10. Further, in series [3] (setting [10]), the “MHV-A59 log10 reduction in viral titre” value turned out to be 4.1 log10 and the “MHV-A59 viral load reduction” value is > 99.99%. Further, the “MHV-A59 log10 reduction in viral titre” value in series [3] (setting [11]) is 4.8 log10. Further, in series [4], the “λ1 (S0 → S1 absorption band)” value is 443 nm, the “λ2 (S0 → S2 absorption band)” value is recorded as 336 nm and the “λem (emission wavelength)” value was found to be 508 nm. Moreover, the “reduction in cell viability (light-induced toxicity)” value (“reduction in cell viability” for short) in series [5] is reported as “no decrease in cell viability”. This molecule also registered an IC50 in series [6] of 30.9 µM. The “% cleaved ssRNA” value in series [7] turned out to be 35%. For the same molecule, the photodecomposition / degradation in series [8] is listed as ~60%.

Regarding `CCCCCCCCn1c(=O)nc2n(CCN)c3cc(C)c(C)cc3nc-2c1=O` [Flavin F1], the “φΔ singlet oxygen quantum yield” value in series [1] was 0.49 ± 0.12. The IC50 in series [2] was determined as 70.2 µM; in series [6], 96.1 µM. In addition, the “MHV-A59 log10 reduction in viral titre” value in series [3] (setting [10]) is listed as 1.7 log10; in series [3] (10 µM flavin, 5 min irradiation (10.5 J/cm^2)), 1.2 log10; in series [3] (setting [11]), 2.1 log10; in series [3] (10 µM flavin, 15 min irradiation (31.5 J/cm^2)), 2.2 log10. Further, the “λ1 (S0 → S1 absorption band)” value in series [4] came out at 444 nm. Further, the “λ2 (S0 → S2 absorption band)” value in series [4] is recorded as 349 nm. In addition, the “λem (emission wavelength)” value in series [4] is given as 507 nm. Moreover, the “reduction in cell viability” value in series [5] is on record as “no decrease in cell viability”. The “% cleaved ssRNA” value in series [7] is 12%. For the same molecule, the photodecomposition / degradation entry in series [8] is “around 40%”.

Take `CCCCCCCCn1c(=O)nc2n(CCNC(=N)N)c3cc(Br)c(Br)cc3nc-2c1=O` [Flavin F4]: in series [1], the “ФΔ singlet oxygen quantum yield” value is 62% and the “φΔ singlet oxygen quantum yield” value is given as 0.62 ± 0.10. Also, in series [2], the IC50 was found to be 50.9 µM. Also, the “MHV-A59 log10 reduction in viral titre” value in series [3] (setting [9]) came out at 3.4 log10. Also, the “MHV-A59 viral load reduction” value in series [3] (setting [10]) was > 99.99%. In series [3] (15 min irradiation at 1 μM), the “viral inactivation, log10 reduction” value is > 3 log10. For the same molecule, in series [4], the “λ1 (S0 → S1 absorption band)” value came out at 444 nm, the “λ2 (S0 → S2 absorption band)” value came out at 340 nm and the “λem (emission wavelength)” value was determined as 513 nm. Moreover, the “reduction in cell viability” value in series [5] is ~ 20%. Moreover, the IC50 in series [6] was > 100 µM. Besides, in series [7], the “% cleaved ssRNA” value is given as 42%. For the same molecule, the photodecomposition / degradation in series [8] is recorded as ~30%.

Take `CCCCCCCCn1c(=O)nc2n(CCNC(=N)N)c3cc(C)c(C)cc3nc-2c1=O` [Flavin F2]: in series [1], the “ФΔ singlet oxygen quantum yield” value came to 55% and the “φΔ singlet oxygen quantum yield” value is 0.55 ± 0.10. Besides, in series [2], the IC50 is > 100 µM. Further, the “MHV-A59 log10 reduction in viral titre” value in series [3] (setting [9]) is reported as 2.1 log10. Besides, in series [3] (setting [10]), the “MHV-A59 log10 reduction in viral titre” value amounted to 3.9 log10 and the “MHV-A59 viral load reduction” value is listed as > 99.9%. Further, the “MHV-A59 log10 reduction in viral titre” value in series [3] (setting [11]) is given as 3.8 log10. Further, in series [4], the “λ1 (S0 → S1 absorption band)” value turned out to be 446 nm, the “λ2 (S0 → S2 absorption band)” value is listed as 350 nm and the “λem (emission wavelength)” value amounted to 512 nm. The “reduction in cell viability” value in series [5] is ~ 75%. In addition, in series [6], the IC50 is > 100 µM. Also, the “% cleaved ssRNA” value in series [7] is on record as 46%. In series [8], the photodecomposition / degradation result is on record as “approximately 10%”.
